{"source": "patent US20160361357A1", "about": "“STABLE HIGH CONCENTRATION STRONTIUM COMPOUNDS AND FORMULATIONS FOR TOPICAL APPLICATION” (Cosmederm Bioscience, Inc., priority 2015, published 2016)", "origin": "cited, not measured here", "key": {"TCN": {"test_system": "TCN", "conditions": "strontium mixed with 70% glycolic acid, pH 0.6 chemical peel"}, "synaptotagmin-1": {"molecular_target": "synaptotagmin-1 (Homo sapiens, UniProt P21579)", "sequence (P21579 whole entry, species assumed)": "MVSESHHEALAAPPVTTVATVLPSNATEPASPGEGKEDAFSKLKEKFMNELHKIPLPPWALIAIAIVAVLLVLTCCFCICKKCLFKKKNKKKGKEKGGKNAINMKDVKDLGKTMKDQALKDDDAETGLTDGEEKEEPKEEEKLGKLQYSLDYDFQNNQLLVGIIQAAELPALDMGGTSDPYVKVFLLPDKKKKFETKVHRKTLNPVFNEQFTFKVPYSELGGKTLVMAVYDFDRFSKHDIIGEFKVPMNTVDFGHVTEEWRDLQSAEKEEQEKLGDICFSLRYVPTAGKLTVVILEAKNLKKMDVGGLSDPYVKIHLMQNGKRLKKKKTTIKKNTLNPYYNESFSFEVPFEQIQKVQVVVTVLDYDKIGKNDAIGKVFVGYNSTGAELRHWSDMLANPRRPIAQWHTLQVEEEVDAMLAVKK", "conditions": "strontium substitutes for calcium; response to TCN activation"}}, "data": [{"smiles": "[Sr+2]", "note": "[strontium]", "values": [{"measurement": "burning pain and stinging suppressed", "setting": "TCN", "value": "≥ 80", "unit": "%"}, {"measurement": "reduction of amplitude of synchronous neurotransmitter release", "setting": "synaptotagmin-1", "value": "more than 90%"}]}]}
